The NIST ThermoML archive (doi:10.1021/je101012n)

Assay: mn = molality of the nth substance listed, in mol/kg
Settings: 101 kPa, Liquid, Alternating current cell with electrodes

O=S(=O)([O-])[O-].[K+].[K+] [potassium sulfate] + O
electrical conductivity [S/m]
Settings | 278.15 K | 283.15 K | 298.15 K | 308.15 K | 318.15 K | 343.15 K | 363.15 K
m1 = 0.000102 | 0.001969 | 0.002257 | 0.003175 | 0.003884 | 0.004575 | 0.006401 | 0.00794
m1 = 0.00105 | 0.01881 | 0.02141 | 0.03006 | 0.03611 | 0.04268 | 0.06018 | 0.07466
m1 = 0.01061 | 0.1685 | 0.1919 | 0.2675 | 0.3216 | 0.3765 | 0.5269 | 0.6441
m1 = 0.1048 | 1.341 | 1.523 | 2.11 | 2.516 | 2.94 | 4.064 | 4.957
m1 = 0.2029 | 2.362 | 2.672 | 3.705 | 4.409 | 5.138 | 7.099 | 8.722
m1 = 0.4783 | 5.151 | 5.78 | 7.801 | 9.298 | 10.8 | 14.91 | 17.97

O=C([O-])O.[Na+] [sodium bicarbonate] + O
electrical conductivity [S/m]
Settings | 278.15 K | 283.15 K | 298.15 K | 308.15 K | 318.15 K | 343.15 K | 363.15 K
m1 = 0.00121 | 0.006911 | 0.008034 | 0.01162 | 0.01437 | 0.01703 | 0.02506 | 0.03284
m1 = 0.01187 | 0.06467 | 0.07485 | 0.1086 | 0.1346 | 0.1589 | 0.234 | 0.3056
m1 = 0.1223 | 0.5728 | 0.6641 | 0.9598 | 1.177 | 1.395 | 2.044 | 2.457
m1 = 0.7226 | 2.634 | 3.055 | 4.383 | 5.346 | 6.41 | 9.404 | 11.39

O=C([O-])[O-].[Na+].[Na+] [sodium carbonate] + O
electrical conductivity [S/m]
Settings | 278.15 K | 283.15 K | 298.15 K | 308.15 K | 318.15 K | 343.15 K | 363.15 K
m1 = 0.000912 | 0.01348 | 0.01603 | 0.02439 | 0.02888 | 0.03495 | 0.05196 | 0.06513
m1 = 0.01031 | 0.1285 | 0.1491 | 0.2182 | 0.2684 | 0.3237 | 0.4867 | 0.6187
m1 = 0.09334 | 0.886 | 1.024 | 1.486 | 1.822 | 2.182 | 3.222 | 4.117
m1 = 0.3041 | 2.324 | 2.685 | 3.893 | 4.781 | 5.713 | 8.362 | 10.64

[Cl-].[Na+] [sodium chloride] + O
electrical conductivity [S/m]
Settings | 278.15 K | 283.15 K | 298.15 K | 308.15 K | 318.15 K | 343.15 K | 363.15 K
m1 = 0.000104 | 0.0008271 | 0.0009431 | 0.001295 | 0.00161 | 0.001893 | 0.002693 | 0.003358
m1 = 0.00099 | 0.007531 | 0.008619 | 0.01224 | 0.01478 | 0.01747 | 0.02497 | 0.03126
m1 = 0.01 | 0.07349 | 0.08395 | 0.1185 | 0.1425 | 0.1694 | 0.2418 | 0.3029
m1 = 0.1 | 0.6588 | 0.7505 | 1.06 | 1.277 | 1.505 | 2.148 | 2.691
m1 = 0.5 | 2.948 | 3.348 | 4.652 | 5.625 | 6.624 | 9.35 | 11.68
m1 = 1 | 5.444 | 6.123 | 8.43 | 10.19 | 11.94 | 16.8 | 20.94

[F-].[Na+] [sodium fluoride] + O
electrical conductivity [S/m]
Settings | 278.15 K | 283.15 K | 298.15 K | 308.15 K | 318.15 K | 343.15 K | 363.15 K
m1 = 8.8e-05 | 0.0005802 | 0.0006955 | 0.0009523 | 0.00122 | 0.001433 | 0.002014 | 0.00252
m1 = 0.00092 | 0.006016 | 0.006909 | 0.009683 | 0.01152 | 0.01398 | 0.02009 | 0.02474
m1 = 0.00878 | 0.05214 | 0.05994 | 0.08551 | 0.1038 | 0.1234 | 0.1798 | 0.227
m1 = 0.0906 | 0.4638 | 0.5338 | 0.7669 | 0.9341 | 1.112 | 1.621 | 2.042
m1 = 0.4176 | 1.917 | 2.201 | 3.151 | 3.824 | 4.547 | 6.57 | 8.137
m1 = 0.8404 | 3.432 | 3.915 | 5.579 | 6.791 | 7.478 | 11.37 | 14.54

[Na+].[OH-] [sodium hydroxide] + O
electrical conductivity [S/m]
Settings | 278.15 K | 283.15 K | 298.15 K | 308.15 K | 318.15 K | 343.15 K | 363.15 K
m1 = 0.001 | 0.01671 | 0.01919 | 0.02459 | 0.02833 | 0.03327 | 0.04401 | 0.05213
m1 = 0.01 | 0.1596 | 0.1793 | 0.2414 | 0.2784 | 0.3201 | 0.4294 | 0.5115
m1 = 0.1 | 1.498 | 1.677 | 2.251 | 2.635 | 3.026 | 4.062 | 4.861
m1 = 0.5 | 6.639 | 7.417 | 9.875 | 11.59 | 13.25 | 17.72 | 20.63
m1 = 1 | 12.13 | 13.5 | 18.01 | 21.19 | 24.38 | 32.74 | 36.66

O=S(=O)([O-])[O-].[Na+].[Na+] [sodium sulfate] + O
electrical conductivity [S/m]
Settings | 278.15 K | 283.15 K | 298.15 K | 308.15 K | 318.15 K | 343.15 K | 363.15 K
m1 = 0.0001 | 0.001565 | 0.001807 | 0.002576 | 0.003181 | 0.003786 | 0.005401 | 0.00676
m1 = 0.001 | 0.01463 | 0.0168 | 0.02415 | 0.0292 | 0.03475 | 0.05015 | 0.0633
m1 = 0.01 | 0.1296 | 0.1488 | 0.2128 | 0.2575 | 0.3049 | 0.4381 | 0.5474
m1 = 0.1001 | 1 | 1.148 | 1.639 | 1.986 | 2.347 | 3.347 | 4.17
m1 = 0.1989 | 1.756 | 2.022 | 2.882 | 3.508 | 4.153 | 5.946 | 7.43
m1 = 0.4999 | 3.383 | 3.854 | 5.47 | 6.708 | 7.954 | 11.39 | 13.7
